# Results reported in patent publication US20250206732A1, “COMPOUNDS AND METHODS FOR THE TARGETED DEGRADATION OF KRAS” (Arvinas Operations, Inc., priority 2022, published 2025).
# Columns and labels:
# [1] = molecular target: T1, AsPC-1 HiBiT-KRASG12D (Homo sapiens, UniProt P01116, G12D); assay: HiBiT degradation assay (G12D), AsPC-1 HiBiT-KRASG12D cells; assay type: cell-based; conditions: 24 hours treatment; for Dmax: ASPC1, AsPC-1 HiBiT-KRASG12D cells, maximum degradation observed; for DC50: AsPC-1 HiBiT-KRASG12D cells, HiBiT luminescence
# T1 construct: insert the HiBiT tag onto the N-terminus of one or more of the endogenous KRAS alleles; endogenous in cells; host or cells: AsPC-1 (ATCC CRL-1682), CRISPR-Cas9 knock-in clone, one tagged allele
# Summary of the method: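 Endogenous KRASG12D levels were measured via an N-terminal HiBiT tag knocked into AsPC-1 cells. Cells received compound titrations for 24 hours, and HiBiT luminescence was detected after a 45-minute lytic reagent incubation at room temperature.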
# [2] = molecular target: T2, SW1573 HiBiT-KRASG12C (Homo sapiens, UniProt P01116, G12C); assay: HiBiT degradation assay (G12C), SW1573 HiBiT-KRASG12C cells; assay type: cell-based; conditions: 24 hours treatment; for DC50: HiBiT luminescence; for Dmax: maximum degradation observed;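 for DC50: Letter grades: C is 1000 to 3000 nM and D is above 3000 nM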
# T2 construct: expressed in transfected cells
# Protocol: Reagents. SW1573 (CRL-2170), AsPC-1 (CRL-1682), and SW620 (CCL-227) cells were purchased from ATCC. SW1573 cells are homozygous for the G12C mutation in KRAS, AsPC-1 cells are homozygous for the G12D mutation, and SW620 cells are homozygous for the G12V mutation. SW1573 cells were cultured in DMEM+F12+Glutamax (+Sodium Bicarbonate, +sodium pyruvate, ThermoFisher scientific, #10565) supplemented with 10% FBS (ThermoFisher scientific, #2060357) and 1% Antibiotic-Antimycotic (ThermoFisher scientific, #15240096). AsPC-1 cells were cultured in GIBCO RPMI-1640 (ThermoFisher scientific, catalog #61870-036 with Glutamax, No HEPES, No Na Pyruvate) supplemented with 10% FBS (ThermoFisher scientific, catalog #2060357) and 1× Penicillin-Streptomycin (ThermoFisher scientific, catalog #15140122, 10000 U/ml, 100×). SW620 cells were cultured in DMEM Glutamax (ThermoFisher scientific, catalog #10566016) supplemented with 10% FBS (ThermoFisher scientific, catalog #2060357) and 1× Penicillin-Streptomycin (ThermoFisher scientific, catalog #15140122, 10000 U/ml, 100×). For degradation assays, 384 well plates were used. Alamar blue was purchased from ThermoFisher scientific (A50101) and used according to manufacturer instructions. The Nano-Glo® HiBiT Lytic Detection System and Nano-Glo® HiBiT Blotting System were purchased from Promega (#N3050 and #N2410) and used according to manufacturer instructions.
# HiBiT-tagged cell line generation. To create the SW1573 HiBiT-KRASG12C cell line, the nucleotide sequence encoding the 11 amino acid HiBiT tag from Promegal was appended to the N-terminus of the KRASG12C coding sequence. This synthesized DNA was cloned into a modified pcDNA3.1 vector under the control of the thymidine kinase (TK) promoter. This HiBiT-KRASG12C expressing plasmid was transfected into parental SW1573 cells and colonies were selected using 400 μg/mL zeocin. The resulting clonal lines were screened for expression of HiBiT-KRASG12C protein using Nano-Glo® HiBiT Blotting System. A luminescent band of the correct size for HiBiT-KRASG12C was detected in several clones. Clone E6 was selected for further studies.
# HiBiT degradation assays (G12C and G12D). Either SW1573 HiBiT-KRasG12C or AsPC-1 HiBiT-KRasG12D cells were plated at 9000 or 15,000 cells/well in a 384 well plate (Corning #3770). Compounds of the present disclosure and positive controls were diluted in the appropriate cell media and applied to the plated cells resulting in a final concentration titration of 10 μM to 508 pM in 0.5% DMSO. Gambogic acid was used as a positive control for cytotoxicity and titrated from 10 μM to 78 nM. All assays were performed in triplicate. Cells were treated with compounds for 24 hours at 37° C. in an incubator containing 5% CO2. Following treatment, alamar blue was used to determine if any compounds led to a loss in cell viability after 24 hours. The 10× alamar blue reagent was added to a final concentration of 1× as recommended by the manufacturer and cells were returned to the incubator for 4 hours. Plates were then allowed to equilibrate to room temperature and fluorescence was measured using a Perkin-Elmer EnVision. After completion of the fluorescence read, the liquid from each well was removed and the cells were washed with PBS. The Nano-Glo® HiBiT detection reagent was prepared according to the manufacturer's instructions and added to each well after the PBS wash was removed. Following incubation at room temperature for 45 minutes, the luminescence was read using the ultra-sensitive luminescence aperture on the Envision instrument.
# Data analysis. Fluorescence values from the alamar blue treatment were normalized to the DMSO-only control for each compound titration. […]
# T2 sequence (P01116 1-188 isoform P01116-2 G12C): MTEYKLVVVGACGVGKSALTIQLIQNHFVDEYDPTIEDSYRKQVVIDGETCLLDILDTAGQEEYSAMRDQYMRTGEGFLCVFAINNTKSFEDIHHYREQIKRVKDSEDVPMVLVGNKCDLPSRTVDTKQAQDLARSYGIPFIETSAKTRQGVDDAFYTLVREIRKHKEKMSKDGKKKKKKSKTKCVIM
# T1 sequence (P01116 1-188 isoform P01116-2 G12D): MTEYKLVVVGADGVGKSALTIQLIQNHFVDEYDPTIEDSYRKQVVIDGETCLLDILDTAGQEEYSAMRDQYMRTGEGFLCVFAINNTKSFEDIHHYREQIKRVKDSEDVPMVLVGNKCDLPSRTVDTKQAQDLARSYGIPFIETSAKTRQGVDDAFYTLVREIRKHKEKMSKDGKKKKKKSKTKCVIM
Structure (SMILES),Dmax [1] [%],DC50 [1] [nM],DC50 [2] [nM],Dmax [2] [%]
"CCc1cccc2cc(O)cc(-c3ncc4c(N5CC6CCC(C5)N6)nc(OC[C@]56CCCN5[C@@H](COCC(=O)N[C@H](C(=O)N5C[C@H](O)C[C@H]5C(=O)N[C@@H](C)c5ccc(-c7scnc7C)cc5)C(C)(C)C)CC6)nc4c3F)c12 [Compound 1, (2S,4R)-1-[(2S)-2-[[2-[[(3R,8R)-8-[[4-(3,8-diazabicyclo[3.2.1]octan-3-yl)-7-(8-ethyl-3-hydroxy-1-naphthyl)-8-fluoro-pyrido[4,3-d]pyrimidin-2-yl]oxymethyl]-1,2,3,5,6,7-hexahydropyrrolizin-3-yl]methoxy]acetyl]amino]-3,3-dimethyl-butanoyl]-4-hydroxy-N-[(1S)-1-[4-(4-methylthiazol-5-yl)phenyl]ethyl]pyrrolidine-2-carboxamide]",80 to 100,600 to 1000,> 3000,20 to 60
"C#Cc1cccc2cc(O)cc(-c3ncc4c(N5CC6CCC(C5)N6)nc(OCCN5CCC6(CC5)CN(c5cc([C@H](C(=O)N7C[C@H](O)C[C@H]7C(=O)N[C@@H](C)c7ccc(-c8scnc8C)cc7)C(C)C)on5)C6)nc4c3F)c12 [Compound 36, (2S,4R)-1-[(2R)-2-[3-(7-{2-[(4-{3,8-diazabicyclo[3.2.1]octan-3-yl}-7-(8-ethynyl-3-hydroxynaphthalen-1-yl)-8-fluoropyrido[4,3-d]pyrimidin-2-yl)oxy]ethyl}-2,7-diazaspiro[3.5]nonan-2-yl)-1,2-oxazol-5-yl]-3-methylbutanoyl]-4-hydroxy-N-[(1S)-1-[4-(4-methyl-1,3-thiazol-5-yl)phenyl]ethyl]pyrrolidine-2-carboxamide]",80 to 100,< 600,> 3000,
"Cc1ncsc1-c1ccc([C@H](C)NC(=O)[C@@H]2C[C@@H](O)CN2C(=O)[C@@H](c2cc(OCC3CCN(CCOc4nc(N5CC6CCC(C5)N6)c5cnc(-c6cc(O)cc(Cl)c6C6CC6)c(F)c5n4)CC3)no2)C(C)C)cc1 [Compound 43, (2S,4R)-1-[(2R)-2-(3-{[1-(2-{[7-(3-chloro-2-cyclopropyl-5-hydroxyphenyl)-4-{3,8-diazabicyclo[3.2.1]octan-3-yl}-8-fluoropyrido[4,3-d]pyrimidin-2-yl]oxy}ethyl)piperidin-4-yl]methoxy}-1,2-oxazol-5-yl)-3-methylbutanoyl]-4-hydroxy-N-[(1S)-1-[4-(4-methyl-1,3-thiazol-5-yl)phenyl]ethyl]pyrrolidine-2-carboxamide]",80 to 100,< 600,> 3000,20 to 60
"CCc1cccc2cc(O)cc(-c3ncc4c(N5CC6CCC(C5)N6)nc(OCCN5CCC(COc6cc([C@H](C(=O)N7C[C@H](O)C[C@H]7C(=O)N[C@@H](C)c7ccc(-c8scnc8C)cc7)C(C)C)on6)CC5)nc4c3F)c12 [Compound 20, (2S,4R)-1-[(2R)-2-[3-[[1-[2-[4-(3,8-diazabicyclo[3.2.1]octan-3-yl)-7-(8-ethyl-3-hydroxy-1-naphthyl)-8-fluoro-pyrido[4,3-d]pyrimidin-2-yl]oxyethyl]-4-piperidyl]methoxy]isoxazol-5-yl]-3-methyl-butanoyl]-4-hydroxy-N-[(1S)-1-[4-(4-methylthiazol-5-yl)phenyl]ethyl]pyrrolidine-2-carboxamide]",80 to 100,< 600,> 3000,
"CCc1cccc2cc(O)cc(-c3ncc4c(N5CC6CCC(C5)N6)nc(OCCN5CCC6(CC5)CN(c5cc([C@H](C(=O)N7C[C@H](O)C[C@H]7C(=O)N[C@@H](C)c7ccc(-c8scnc8C)cc7)C(C)C)on5)C6)nc4c3F)c12 [Compound 16, (2S,4R)-1-[(2R)-2-[3-[7-[2-[4-(3,8-diazabicyclo[3.2.1]octan-3-yl)-7-(8-ethyl-3-hydroxy-1-naphthyl)-8-fluoro-pyrido[4,3-d]pyrimidin-2-yl]oxyethyl]-2,7-diazaspiro[3.5]nonan-2-yl]isoxazol-5-yl]-3-methyl-butanoyl]-4-hydroxy-N-[(1S)-1-[4-(4-methylthiazol-5-yl)phenyl]ethyl]pyrrolidine-2-carboxamide]",80 to 100,< 600,> 3000,
"CCc1cccc2cc(O)cc(-c3ncc4c(N5CC6CCC(C5)N6)nc(OCCN5CCC(COC6(C(=O)N[C@H](C(=O)N7C[C@H](O)C[C@H]7C(=O)N[C@@H](C)c7ccc(-c8scnc8C)cc7)C(C)(C)C)CC6)CC5)nc4c3F)c12 [Compound 9, (2S,4R)-1-[(2S)-2-[[1-[[1-[2-[4-(3,8-diazabicyclo[3.2.1]octan-3-yl)-7-(8-ethyl-3-hydroxy-1-naphthyl)-8-fluoro-pyrido[4,3-d]pyrimidin-2-yl]oxyethyl]-4-piperidyl]methoxy]cyclopropanecarbonyl]amino]-3,3-dimethyl-butanoyl]-4-hydroxy-N-[(1S)-1-[4-(4-methylthiazol-5-yl)phenyl]ethyl]pyrrolidine-2-carboxamide]",80 to 100,< 600,> 3000,
"Cc1ncsc1-c1ccc([C@H](C)NC(=O)[C@@H]2C[C@@H](O)CN2C(=O)[C@@H](NC(=O)COCC2CCN(CCOc3nc(N4CC5CCC(C4)N5)c4cnc(-c5cc(O)cc6ccccc56)c(F)c4n3)CC2)C(C)(C)C)cc1 [Compound 23, (2S,4R)-1-[(2S)-2-[[2-[[1-[2-[4-(3,8-diazabicyclo[3.2.1]octan-3-yl)-8-fluoro-7-(3-hydroxy-1-naphthyl)pyrido[4,3-d]pyrimidin-2-yl]oxyethyl]-4-piperidyl]methoxy]acetyl]amino]-3,3-dimethyl-butanoyl]-4-hydroxy-N-[(1S)-1-[4-(4-methylthiazol-5-yl)phenyl]ethyl]pyrrolidine-2-carboxamide]",20 to 60,1000 to 3000,> 3000,
"CCc1cccc2cc(O)cc(-c3ncc4c(N5CC6CCC(C5)N6)nc(OCCN5CCC(CC6(F)CCN(CC(=O)N[C@H](C(=O)N7C[C@H](O)C[C@H]7C(=O)N[C@@H](C)c7ccc(-c8scnc8C)cc7)C(C)(C)C)CC6)CC5)nc4c3F)c12 [Compound 260, (2S,4R)-1-[(2S)-2-(2-{4-[(1-{2-[(4-{3,8-diazabicyclo[3.2.1]octan-3-yl}-7-(8-ethyl-3-hydroxynaphthalen-1-yl)-8-fluoropyrido[4,3-d]pyrimidin-2-yl)oxy]ethyl}piperidin-4-yl)methyl]-4-fluoropiperidin-1-yl}acetamido)-3,3-dimethylbutanoyl]-4-hydroxy-N-[(1S)-1-[4-(4-methyl-1,3-thiazol-5-yl)phenyl]ethyl]pyrrolidine-2-carboxamide]",80 to 100,< 600,,
C#Cc1c(F)ccc2cc(O)cc(-c3ncc4c(N5CC6CCC(C5)N6)nc(OC[C@]56CCCN5[C@H](COC(=O)N5CC(Oc7cc([C@@H](C(=O)N8C[C@H](O)C[C@H]8C(=O)N[C@@H](C)c8ccc(-c9scnc9C)cc8)C(C)C)on7)C5)CC6)nc4c3F)c12 [Compound 303],60 to 80,< 600,,
